For the assay, the target named is Human GPR35 (Homo sapiens, UniProt Q9HC97, S294R). Kind of assay: Alternative Beta-Arrestin Assay (JumpIn 294R Tango U2OS cells, LiveBLAzer-FRET B/G). It is filed as cell-based. The conditions noted are these: Human GPR35 expressing JumpIn 294R Tango U2OS cells, 5 hours treatment. How it is done:
Human GPR35 expressing JumpIn (Thermo Fisher) 294R Tango U2OS cells were plated in 384-well format in clear bottom plates at a cell density of 10,000 cells/well and allowed to grow overnight. The next day, cells were treated with serially diluted test compounds for 5 hours. LiveBLAzer-FRET B/G (CCF4-AM) detection reagents were then added and cells were allowed to incubate for 2 hours before reading plates on a BioTek Cytation 5 plate reader. Zaprinast was used as a positive control for dose-response curves. In order to determine EC50 values, data w ere fit to a four-parameter dose-response curves.

A word on the EC50: it is the midpoint of the concentration-response curve. A higher EC50 goes with a less potent agent.

Human GPR35, sequence (Q9HC97 whole entry S294R): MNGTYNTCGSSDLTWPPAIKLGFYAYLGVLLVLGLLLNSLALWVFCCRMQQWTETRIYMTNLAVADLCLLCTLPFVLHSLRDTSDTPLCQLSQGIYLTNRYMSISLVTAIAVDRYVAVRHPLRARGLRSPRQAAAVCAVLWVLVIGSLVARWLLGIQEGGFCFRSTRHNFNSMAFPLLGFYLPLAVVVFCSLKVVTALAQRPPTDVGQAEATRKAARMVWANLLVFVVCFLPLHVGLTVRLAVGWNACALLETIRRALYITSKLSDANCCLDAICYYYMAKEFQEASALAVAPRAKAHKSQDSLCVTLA

On to `CCOc1cc(-c2nc(C(=O)O)cs2)ccc1-c1nc2[nH]nnc2c(=O)[nH]1` [Compound 187, 2-(3-ethoxy-4-(7-oxo-6,7-dihydro-3H-[1,2,3]triazolo[4,5-d]pyrimidin-5-yl)phenyl)thiazole-4-carboxylic acid], for which the half-maximal effective concentration (EC50) was not above 10 µM.
`CCOc1cc(-c2nc(C(=O)O)co2)ccc1-c1nc2[nH]nnc2c(=O)[nH]1` [Compound 188, 2-(3-ethoxy-4-(7-oxo-6,7-dihydro-3H-[1,2,3]triazolo[4,5-d]pyrimidin-5-yl)phenyl)oxazole-4-carboxylic acid]: the EC50 was not above 10 µM.
In the case of `CCOc1cc(-c2ccc(C(=O)O)o2)ccc1-c1nc2[nH]nnc2c(=O)[nH]1` [Compound 189, 5-(3-ethoxy-4-(7-oxo-6,7-dihydro-3H-[1,2,3]triazolo[4,5-d]pyrimidin-5-yl)phenyl)furan-2-carboxylic acid] it was not above 10 µM; in that of `CCOc1cc(-c2cc(C(=O)O)cs2)ccc1-c1nc2[nH]nnc2c(=O)[nH]1` [Compound 190, 5-(3-ethoxy-4-(7-oxo-6,7-dihydro-3H-[1,2,3]triazolo[4,5-d]pyrimidin-5-yl)phenyl)thiophene-3-carboxylic acid], not above 10 µM.
For the molecule `CCOC(=O)c1ccc(-c2ccc(-c3nc4[nH]nnc4c(=O)[nH]3)c(OCC)c2)cc1` [Compound 191, ethyl 3′-ethoxy-4′-(7-oxo-6,7-dihydro-3H-[1,2,3]triazolo[4,5-d]pyrimidin-5-yl)-[1,1′-biphenyl]-4-carboxylate], the EC50 is not above 10 µM.
`CCOc1cc(-c2cc(C(=O)O)n(C)c2)ccc1-c1nc2[nH]nnc2c(=O)[nH]1` [Compound 192, 4-(3-ethoxy-4-(7-oxo-6,7-dihydro-3H-[1,2,3]triazolo[4,5-d]pyrimidin-5-yl)phenyl)-1-methyl-1H-pyrrole-2-carboxylic acid] had an EC50 not above 10 µM.
The result for `CCOc1cc(-c2ccc(C(=O)OCc3oc(=O)oc3C)cc2)ccc1-c1nc2nn[nH]c2c(=O)[nH]1` [Compound 193, (5-Methyl-2-oxo-1,3-dioxol-4-yl)methyl 3′-ethoxy-4′-(7-oxo-6,7-dihydro-3H-[1,2,3]triazolo[4,5-d]pyrimidin-5-yl)-[1,1′-biphenyl]-4-carboxylate] reads not above 10 µM; that for `O=C(O)c1ccc(-c2ccc(-c3nc4[nH]nnc4c(=O)[nH]3)c(OC3CCCC3)c2)cc1` [Compound 194, 3′-(Cyclopentyloxy)-4′-(7-oxo-6,7-dihydro-3H-[1,2,3]triazolo[4,5-d]pyrimidin-5-yl)-[1,1′-biphenyl]-4-carboxylic acid], not above 10 µM.
In the case of `CCOc1cc(-c2nc3[nH]nnc3c(=O)[nH]2)ccc1-c1ccc(C(=O)O)cc1` [Compound 195, 2′-Ethoxy-4′-(7-oxo-6,7-dihydro-3H-[1,2,3]triazolo[4,5-d]pyrimidin-5-yl)-[1,1′-biphenyl]-4-carboxylic acid] it was not above 10 µM; in that of `COc1cc(-c2nc3[nH]nnc3c(=O)[nH]2)cc(OC)c1-c1ccc(C(=O)O)cc1` [Compound 196, 2′,6′-Dimethoxy-4′-(7-oxo-6,7-dihydro-3H-[1,2,3]triazolo[4,5-d]pyrimidin-5-yl)-[1,1′-biphenyl]-4-carboxylic acid], not above 10 µM.
In the case of `CCOc1cc(-c2cccc(N)c2)ccc1-c1nc2[nH]nnc2c(=O)[nH]1` [Compound 197, 5-(3′-Amino-3-ethoxy-[1,1′-biphenyl]-4-yl)-3,6-dihydro-7H-[1,2,3]triazolo[4,5-d]pyrimidin-7-one] it was not above 10 µM; in that of `CCOc1cc(-c2cc(O)cc(C(=O)O)c2)ccc1-c1nc2[nH]nnc2c(=O)[nH]1` [Compound 198, 3′-Ethoxy-5-hydroxy-4′-(7-oxo-6,7-dihydro-3H-[1,2,3]triazolo[4,5-d]pyrimidin-5-yl)-[1,1′-biphenyl]-3-carboxylic acid], not above 10 µM.
`O=C(O)c1cc(O)cc(-c2ccc(-c3nc4[nH]nnc4c(=O)[nH]3)c(OC3CCCC3)c2)c1` [Compound 199, 3′-(Cyclopentyloxy)-5-hydroxy-4′-(7-oxo-6,7-dihydro-3H-[1,2,3]triazolo[4,5-d]pyrimidin-5-yl)-[1,1′-biphenyl]-3-carboxylic acid] registered an EC50 not above 10 µM.
The result for `O=C(O)c1cc(-c2ccc(-c3nc4[nH]nnc4c(=O)[nH]3)c(OC3CCCC3)c2)ccc1O` [Compound 200, 3′-(Cyclopentyloxy)-4-hydroxy-4′-(7-oxo-6,7-dihydro-3H-[1,2,3]triazolo[4,5-d]pyrimidin-5-yl)-[1,1′-biphenyl]-3-carboxylic acid] reads not above 10 µM; that for `O=C(O)c1ccc(-c2ccc(-c3nc4[nH]nnc4c(=O)[nH]3)c(OC3CCCC3)c2)cc1O` [Compound 201, 3′-(Cyclopentyloxy)-3-hydroxy-4′-(7-oxo-6,7-dihydro-3H-[1,2,3]triazolo[4,5-d]pyrimidin-5-yl)-[1,1′-biphenyl]-4-carboxylic acid], not above 10 µM.
The result for `O=C(O)c1ccc(-c2ccc(-c3nc4[nH]nnc4c(=O)[nH]3)c(OC3CCCC3)c2)c(O)c1` [Compound 202, 3′-(Cyclopentyloxy)-2-hydroxy-4′-(7-oxo-6,7-dihydro-3H-[1,2,3]triazolo[4,5-d]pyrimidin-5-yl)-[1,1′-biphenyl]-4-carboxylic acid] reads not above 10 µM; that for `CCOc1cc(-c2cc(F)c(O)c(F)c2)ccc1-c1nc2[nH]nnc2c(=O)[nH]1` [Compound 203, 5-(3-Ethoxy-3′,5′-difluoro-4′-hydroxy-[1,1′-biphenyl]-4-yl)-3,6-dihydro-7H-[1,2,3]triazolo[4,5-d]pyrimidin-7-one], not above 10 µM.
The result for `CCOc1cc(-c2ccc(C(=O)O)c(N)c2)ccc1-c1nc2[nH]nnc2c(=O)[nH]1` [Compound 204, 3-Amino-3′-ethoxy-4′-(7-oxo-6,7-dihydro-3H-[1,2,3]triazolo[4,5-d]pyrimidin-5-yl)-[1,1′-biphenyl]-4-carboxylic acid] reads not above 10 µM; that for `CCOc1cc(-c2ccc(C(=O)O)c(F)c2)ccc1-c1nc2[nH]nnc2c(=O)[nH]1` [Compound 205, 3′-Ethoxy-3-fluoro-4′-(7-oxo-6,7-dihydro-3H-[1,2,3]triazolo[4,5-d]pyrimidin-5-yl)-[1,1′-biphenyl]-4-carboxylic acid], not above 10 µM.
For `CCOc1cc(-c2ccc(C(=O)O)c(OC)c2)ccc1-c1nc2[nH]nnc2c(=O)[nH]1` [Compound 206, 3′-Ethoxy-3-methoxy-4′-(7-oxo-6,7-dihydro-3H-[1,2,3]triazolo[4,5-d]pyrimidin-5-yl)-[1,1′-biphenyl]-4-carboxylic acid], the concentration giving a half-maximal response (EC50) was not above 10 µM.
In the case of `CCOc1cc(-c2ccc(C(=O)O)c(C)c2)ccc1-c1nc2[nH]nnc2c(=O)[nH]1` [Compound 207, 3′-Ethoxy-3-methyl-4′-(7-oxo-6,7-dihydro-3H-[1,2,3]triazolo[4,5-d]pyrimidin-5-yl)-[1,1′-biphenyl]-4-carboxylic acid] it was not above 10 µM; in that of `CCOc1cc(-c2ccc(C(=O)O)c(O)c2)ccc1-c1nc2[nH]nnc2c(=O)[nH]1` [Compound 208, 3′-Ethoxy-3-hydroxy-4′-(7-oxo-6,7-dihydro-3H-[1,2,3]triazolo[4,5-d]pyrimidin-5-yl)-[1,1′-biphenyl]-4-carboxylic acid], not above 10 µM; in that of `O=C(O)c1cccc(-c2ccc(-c3nc4[nH]nnc4c(=O)[nH]3)c(OC3CCCC3)c2)c1O` [Compound 209, 3′-(Cyclopentyloxy)-2-hydroxy-4′-(7-oxo-6,7-dihydro-3H-[1,2,3]triazolo[4,5-d]pyrimidin-5-yl)-[1,1′-biphenyl]-3-carboxylic acid], not above 10 µM.
In the case of `O=C(O)c1ccc(O)c(-c2ccc(-c3nc4[nH]nnc4c(=O)[nH]3)c(OC3CCCC3)c2)c1` [Compound 210, 3′-(Cyclopentyloxy)-6-hydroxy-4′-(7-oxo-6,7-dihydro-3H-[1,2,3]triazolo[4,5-d]pyrimidin-5-yl)-[1,1′-biphenyl]-3-carboxylic acid], the EC50 was not above 10 µM.
In the case of `CCOc1cc(-c2ccc(OCC(=O)O)cc2)ccc1-c1nc2[nH]nnc2c(=O)[nH]1` [Compound 211, 2-((3′-Ethoxy-4′-(7-oxo-6,7-dihydro-3H-[1,2,3]triazolo[4,5-d]pyrimidin-5-yl)-[1,1′-biphenyl]-4-yl)oxy)acetic acid] it was not above 10 µM.
The result for `CCOc1cc(-c2cccc(OC(C)(C)C(=O)O)c2)ccc1-c1nc2[nH]nnc2c(=O)[nH]1` [Compound 213, 2-((3′-Ethoxy-4′-(7-oxo-6,7-dihydro-3H-[1,2,3]triazolo[4,5-d]pyrimidin-5-yl)-[1,1′-biphenyl]-3-yl)oxy)-2-methylpropanoic acid] reads not above 10 µM; that for `CCOc1cc(-c2cccc(NCC(=O)O)c2)ccc1-c1nc2[nH]nnc2c(=O)[nH]1` [Compound 214, (3′-Ethoxy-4′-(7-oxo-6,7-dihydro-3H-[1,2,3]triazolo[4,5-d]pyrimidin-5-yl)-[1,1′-biphenyl]-3-yl)glycine], not above 10 µM; that for `CCOc1cc(-c2ccc(NCC(=O)O)cc2)ccc1-c1nc2[nH]nnc2c(=O)[nH]1` [Compound 215, (3′-Ethoxy-4′-(7-oxo-6,7-dihydro-3H-[1,2,3]triazolo[4,5-d]pyrimidin-5-yl)-[1,1′-biphenyl]-4-yl)glycine], not above 10 µM.
In the case of `O=C(O)COc1cccc(-c2ccc(-c3nc4[nH]nnc4c(=O)[nH]3)c(OC3CCCC3)c2)c1` [Compound 216, 2-((3′-(Cyclopentyloxy)-4′-(7-oxo-6,7-dihydro-3H-[1,2,3]triazolo[4,5-d]pyrimidin-5-yl)-[1,1′-biphenyl]-3-yl)oxy)acetic acid] it was not above 10 µM.
For the molecule `CCOc1cc(-c2nc3[nH]nnc3c(=O)[nH]2)ccc1-c1cccc(OCC(=O)O)c1` [Compound 217, 2-((2′-Ethoxy-4′-(7-oxo-6,7-dihydro-3H-[1,2,3]triazolo[4,5-d]pyrimidin-5-yl)-[1,1′-biphenyl]-3-yl)oxy)acetic acid], the EC50 was not above 10 µM.

Source of the values: patent US11053251B2, “GPR35 modulators” (Prometheus Biosciences, Inc., priority 2019, dated 2021).
